A short description of data set [1]: Binding affinity to beta-cyclodextrin in aqueous solution after 72 hrs by phase-solubility measurements. The class given is ADME. As to conditions: buffer.
A short description of data set [2]: Aqueous solubility of the compound. The class given is physicochemical. As to conditions: water.

≈ marks a conversion by molar mass, not a printed value.

As a reminder, the solubility is how much of the substance goes into solution per volume. Low values mean little dissolved substance, high ones much dissolved substance. `COc1cc2c(cc1OC)[C@@H](c1ccc(Cl)cc1)N(C(C)=O)CC2` yielded a K in data set [1] of 15889 M⁻¹. In data set [2], this molecule had a solubility of 5 mM (≈ 1730 µg/mL).
The like results for `COc1cc2c(cc1OC)C(c1ccc(Cl)cc1)N(C(C)=O)CC2` (racemic) were, in that order, 1079 M⁻¹ and 3 mM (≈ 1040 µg/mL).

These data come from ChEMBL document CHEMBL1152121, “Improvement of water solubility of non-competitive AMPA receptor antagonists by complexation with beta-cyclodextrin” (Bioorg Med Chem, 2008).
